Laboratory results taken from patent US5112846A, “N-hydroxyamide, N-hydroxythioamide, hydroxyurea, and N-hydroxythiourea derivatives of selected nsaids as antiinflammatory agents” (Warner-Lambert Company, priority 1990, dated 1992).

Assays:
5-Lipoxygenase = target: T1, 5-Lipoxygenase (Rattus norvegicus, UniProt P12527); assay: ARBL whole cell 5-lipoxygenase assay (LTB4 formation in RBL-1 cells, A23187 stimulated); format: cell-based; conditions: RBL-1 cells; for IC50: read-out: ARBL IC50 (inhibition of LTB4 formation); for inhibition at 16 µM: read-out: ARBL % inhibition of LTB4
T1 construct: host or cells: RBL-1 rat basophilic leukemia cells
T1 sequence (P12527 1-673): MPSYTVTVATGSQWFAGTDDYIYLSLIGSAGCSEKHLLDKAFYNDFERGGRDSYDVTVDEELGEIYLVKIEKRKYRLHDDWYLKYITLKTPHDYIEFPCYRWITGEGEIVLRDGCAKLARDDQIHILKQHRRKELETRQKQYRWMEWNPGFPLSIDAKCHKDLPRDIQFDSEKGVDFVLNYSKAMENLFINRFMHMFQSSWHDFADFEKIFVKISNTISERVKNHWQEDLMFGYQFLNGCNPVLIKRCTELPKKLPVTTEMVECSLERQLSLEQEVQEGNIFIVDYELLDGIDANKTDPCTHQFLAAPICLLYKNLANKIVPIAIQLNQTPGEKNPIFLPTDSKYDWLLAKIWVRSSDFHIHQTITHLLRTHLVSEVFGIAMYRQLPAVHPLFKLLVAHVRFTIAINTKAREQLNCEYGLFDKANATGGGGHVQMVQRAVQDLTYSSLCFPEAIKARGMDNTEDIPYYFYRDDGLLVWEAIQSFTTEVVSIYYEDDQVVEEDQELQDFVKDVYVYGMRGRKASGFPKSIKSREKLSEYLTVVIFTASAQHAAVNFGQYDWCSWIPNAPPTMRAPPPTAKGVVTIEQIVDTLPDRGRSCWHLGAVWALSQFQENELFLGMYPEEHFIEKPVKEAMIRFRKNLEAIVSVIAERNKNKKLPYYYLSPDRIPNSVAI
Experimental: (§1) ARBL/ARBC Whole Cell 5-Lipoxygenase and Cyclooxygenase Assays
(§2) The rat basophilic leukemia cell line (RBL-1) was obtained from the American Type Culture Collection (Rockville, MD).
(§3) Radioimmunoassay (RIA) kits of LTB4 and PGF2α were obtained from Amersham (Arlington Heights, IL) and Seragen (Boston, MA), respectively.
(§4) RBL-1 cells are grown in suspension culture in Eagle's minimum essential medium supplemented with 12% fetal bovine serum at 37° C. in an incubator supplied with air-5% carbon dioxide. Cells are harvested by centrifugation. They are washed with cold phosphate buffered saline pH 7.4 (PBS; NaCl, 7.1 g; Na2 HPO4, 1.15 g; KH2 PO4, 0.2 g; and KCl, 0.2 g/l). Cells are finally suspended in PBS containing 1.0 mM calcium at a density of 2×10^6 cells/ml. Cells are incubated with and without test agent (in DMSO) (1% DMSO is without effect on arachidonic acid metabolism) for ten minutes at room temperature. Calcium ionophore A23187 (5 μM) is added and cells are incubated for seven minutes at 37° C. The reaction is stopped by chilling the tubes on ice for ten minutes. Cells are separated by centrifugation and the supernatant is stored at -20° C. Aliquots (100 μl) are analyzed for LTB4 and PGF2α using radioimmunoassay kits as provided by the supplier.
(§5) Tables 1-4 contain biochemical data obtained from this whole cell assay either as IC50 s which are calculated as the amount of test compound causing 50% inhibition of LTB4 or PGF2α formation or % inhibition of LTB4 or PGF2α at the indicated amount expressed as μM.

Cyclooxygenase = target: T2, Cyclooxygenase (Rattus norvegicus, UniProt Q63921); assay: ARBC whole cell cyclooxygenase assay (PGF2α formation in RBL-1 cells, A23187 stimulated); format: cell-based; conditions: RBL-1 cells; for IC50: read-out: ARBC IC50 (inhibition of PGF2α formation); for inhibition at 16 µM: read-out: ARBC % inhibition of PGF2α
T2 construct: host or cells: RBL-1 rat basophilic leukemia cells
T2 sequence (Q63921 27-602): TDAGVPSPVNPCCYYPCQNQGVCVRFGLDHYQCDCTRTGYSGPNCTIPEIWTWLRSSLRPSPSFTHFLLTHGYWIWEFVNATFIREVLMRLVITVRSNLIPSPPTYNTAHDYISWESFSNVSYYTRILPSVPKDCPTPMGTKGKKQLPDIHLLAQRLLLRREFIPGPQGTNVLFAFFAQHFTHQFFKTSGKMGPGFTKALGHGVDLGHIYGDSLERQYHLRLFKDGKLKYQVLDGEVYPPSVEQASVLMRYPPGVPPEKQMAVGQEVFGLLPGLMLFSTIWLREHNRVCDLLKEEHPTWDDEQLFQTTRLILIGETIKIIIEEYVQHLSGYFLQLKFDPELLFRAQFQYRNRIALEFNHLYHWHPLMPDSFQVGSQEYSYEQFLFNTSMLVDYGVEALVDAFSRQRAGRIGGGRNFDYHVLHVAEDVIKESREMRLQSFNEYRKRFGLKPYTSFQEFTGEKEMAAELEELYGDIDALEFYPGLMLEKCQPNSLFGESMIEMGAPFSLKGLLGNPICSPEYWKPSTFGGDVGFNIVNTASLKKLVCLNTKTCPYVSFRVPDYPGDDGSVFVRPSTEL
Experimental: as §1, §2, §3, §4, §5

SMILES	IC50 (5-Lipoxygenase) [nM]	IC50 (Cyclooxygenase) [nM]	inhibition at 16 µM (5-Lipoxygenase) [%]	inhibition at 16 µM (Cyclooxygenase) [%]
CC(=O)N(O)Cc1ccccc1Nc1c(Cl)ccc(C)c1Cl [Example 54, N-[[2-[(2,6-Dichloro-3-methylphenyl)amino]phenyl]methyl]-N-hydroxyacetamide]	180	5000		
CC(=O)N(O)Cc1ccccc1Nc1cccc(C(F)(F)F)c1 [Example 55]	280	5200		
CNC(=O)N(O)Cc1ccccc1Nc1cccc(C(F)(F)F)c1 [Example 56]	120	2200		
CCOC(=O)N(O)Cc1ccccc1Nc1cccc(C(F)(F)F)c1 [Example 57, N-Hydroxy-N-[[2-[[3-(trifluoromethyl)phenyl]amino]phenyl]methyl]carbamic acid, ethyl ester]			100	91
CCOC(=O)CC(=O)N(O)Cc1c(C)n(C(=O)c2ccc(Cl)cc2)c2ccc(OC)cc12 [Example 64, 3-[[[1-(4-Chlorobenzoyl)-5-methoxy-2-methyl-1H-indol-3-yl]methyl]hydroxyamino]-3-oxo-propanoic acid, ethyl ester]	1100	14000		
COC(=O)CCC(=O)N(O)Cc1c(C)n(C(=O)c2ccc(Cl)cc2)c2ccc(OC)cc12 [Example 65, 4-[[[1-(4-Chlorobenzoyl)-5-methoxy-2-methyl-1H-indol-3-yl]methyl]hydroxyamino]-4-oxo-butanoic acid, methyl ester]	1300	9400		
COc1ccc2c(c1)c(CN(O)C(=O)N(C)C)c(C)n2C(=O)c1ccc(Cl)cc1 [Example 70, 1-(4-Chlorobenzoyl)-N-[(dimethylamino)carbonyl]-N-hydroxy-5-methoxy-2-methyl-1H-indole-3-methanamine]			100	73
C=CCNC(=O)N(O)Cc1c(C)n(C(=O)c2ccc(Cl)cc2)c2ccc(OC)cc12 [Example 71, 1-(4-Chlorobenzoyl)-N-hydroxy-5-methoxy-2-methyl-N-[(2-propenylamino)carbonyl]-1H-indole-3-methanamine]			100	50
CNC(=S)N(O)Cc1c(C)n(C(=O)c2ccc(Cl)cc2)c2ccc(OC)cc12 [Example 74, 1-(4-Chlorobenzoyl)-N-hydroxy-5-methoxy-2-methyl-N-[(methylamino)thioxomethyl]-1H-indole-3-methanamine]	400	7100		
